# Experimental data: patent US9040252B2, “Method for increasing and regulating light emission from a chemiluminescent reaction” (Cyanagen S.R.L., priority 2010, dated 2015)
# Molecular target: T1, horseradish peroxidase (HRP-type VIA) (Armoracia rusticana, UniProt P00433)
# T1 construct: purchased Sigma-Aldrich
# T1 sequence (P00433 31-338 limits assumed): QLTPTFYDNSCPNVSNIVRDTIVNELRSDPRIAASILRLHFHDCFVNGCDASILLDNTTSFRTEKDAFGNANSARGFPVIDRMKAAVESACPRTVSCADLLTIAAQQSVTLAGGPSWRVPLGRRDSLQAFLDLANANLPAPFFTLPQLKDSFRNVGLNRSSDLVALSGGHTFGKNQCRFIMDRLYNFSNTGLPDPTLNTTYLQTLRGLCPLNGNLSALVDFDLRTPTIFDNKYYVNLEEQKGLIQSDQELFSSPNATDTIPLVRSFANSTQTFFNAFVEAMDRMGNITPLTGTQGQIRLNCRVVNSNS
# Experiment: Dependence of the enhanced luminol-peroxide-peroxidase chemiluminescent reaction on secondary enhancer concentration
# Format: biochemical
# Details: pH 9.00 Tris buffer; initial light output, FIG. 4
# Experimental: All measurements reported in Examples were carried out with a Varian Eclipse spectrofluorimeter and the following settings: bio/chemiluminescence mode; emission wavelength: 425 nm; emission slit: 20 nm; Photomultiplier Detection Voltage: medium.
# A series of chemiluminescent substrates in 0.15 M, pH 9.00+−0.05 Tris buffer, is prepared, with the following compositions:
# [luminol sodium salt]=5 mM
# [sodium 3-(phenothiazin-10-yl)propane-1-sulfonate]=3 mM secondary enhancer=MORP, imidazole, 1-methylimidazole, 1,2,3-triazole, 1,2,4-triazole at the following concentrations:
# A series of disposable polymethylmethacrylate cuvettes is prepared, each containing 2 mL of substrate solution. To each cuvette are added 10 μL of a 2 μg/mL horseradish peroxidase solution (HRP-type VIA) solution and simultaneously a 30 seconds countdown is started. The cuvette is closed with a square piece of parafilm and vortexed for 3 seconds. The cuvette is then inserted into the spectrofluorimeter. At the end of the 30 seconds countdown measurement of the luminescent signal is initiated and recorded for a 900 sec period. In all cases the signal reaches a plateau level within 30 seconds after the addition of the peroxidase, and then begins to slowly decrease. Initial, plateau levels are plotted vs. secondary enhancer concentration, FIG. 4. As it can be seen, the effect of MORP on signal intensity is quite strong even at very low concentrations. Signal output reaches a sharp maximum at about 1.5 mM of MORP and then falls abruptly. In contrast, N-azoles exert a much more gradual effect on signal intensity, reaching a plateau at much higher concentration levels. Thus, they afford a considerable degree of regulation of the chemiluminescent light output, which cannot be obtained with dialkylaminopyridine secondary enhancers such as MORP.
row,SMILES,behaviour of enhancement effect with increasing secondary enhancer concentration
1,c1c[nH]cn1 [imidazole],begin to slowly decrease their action at very high concentration
2,"c1cc(N2CCOCC2)ccn1 [MORP, 4-morpholinopyridine, reference compound]",sharply decreases its enhancement effect with a further increase in concentration
3,"c1nc[nH]n1 [1,2,4-triazole]",tend to reach a plateau
4,Cn1ccnc1 [1-methylimidazole],tend to reach a plateau
5,"c1c[nH]nn1 [1,2,3-triazole]",tend to reach a plateau
